The results in this text go back to article PMC6932632 (Biochemistry, 2019).

The structures appear in SMILES notation.

The test concerns the target T1, p38γ (Homo sapiens, UniProt P53778).
T1 sequence (P53778 1-367): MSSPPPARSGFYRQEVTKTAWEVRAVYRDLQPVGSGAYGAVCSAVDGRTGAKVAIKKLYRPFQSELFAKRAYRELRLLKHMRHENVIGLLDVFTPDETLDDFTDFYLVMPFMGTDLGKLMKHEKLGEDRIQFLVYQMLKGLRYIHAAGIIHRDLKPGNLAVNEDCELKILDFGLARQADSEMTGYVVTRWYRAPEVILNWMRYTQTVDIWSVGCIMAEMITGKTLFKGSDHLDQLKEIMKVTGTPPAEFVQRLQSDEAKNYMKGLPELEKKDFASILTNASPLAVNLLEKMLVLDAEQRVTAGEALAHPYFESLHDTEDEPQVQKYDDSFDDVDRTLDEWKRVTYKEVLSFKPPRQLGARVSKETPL
Put plainly: NMR titration. It counts as binding.

Take `Nc1ncnc2c1ncn2[C@@H]1O[C@H](COP(=O)(O)OP(=O)(O)OP(=O)(O)O)[C@@H](O)[C@H]1O` [ATP]: the Kd came out at 770 µM.
